Data as given in patent publication US9220680B2, “Compositions and methods for localized drug delivery through mammary papillae” (South Dakota State University, priority 2012, dated 2015).
“And” between values parts separate entries of the source, which are not always exact repeats. Equal entries are not always repeated.

Assays:
[1] = Transmammary permeation across human mammary papilla with and without removal of the keratin plug (Experiments 12-18); assay type: in vitro ADME; details: for lag time / cumulative amount permeated / Drug retention in tissue / Flux: value (SEM); for cumulative amount permeated: 48 hours; for Drug retention in tissue: end of 48 hours; for Increase in permeation across the tissues upon removal of the keratin plugs: human mammary papilla
From the text: Mammary papillae tissues were thawed. […] The drug solutions were spiked with radioactive substances. […] Receptor medium was PBS with 7.4 pH. […] Results may be seen in FIG. 37 and Table 13.
Mammary papillae tissues were thawed. […] The drug solutions were spiked with radioactive substances. […] Receptor medium was PBS with 7.4 pH. […] Results may be seen in FIG. 38 and Table 15.
Mammary papillae tissues were thawed. […] The drug solutions were spiked with radioactive substances. […] Receptor medium was PBS with 7.4 pH. […] Results may be seen in FIG. 39 and Table 17.
Mammary papillae tissues were thawed. […] The drug solutions were spiked with radioactive substances. […] Receptor medium was PBS with 7.4 pH. […] Results may be seen in FIG. 40.
Mammary papillae and skin tissues were thawed. […] The drug solutions were spiked with radioactive substances. […] Receptor medium was PBS with 7.4 pH. […] Results may be seen in FIG. 41 and Table 20.
Mammary papillae and skin tissues were thawed. […] The drug solutions were spiked with radioactive substances. […] Receptor medium was PBS with 7.4 pH. […] Results may be seen in FIG. 42 and Table 22.
Mammary papillae tissues were thawed. […] The drug solutions were spiked with radioactive substances. […] Receptor medium was PBS with 7.4 pH. […] Results may be seen in FIG. 43 and Table 24.

[2] = Transmammary permeation across porcine mammary papilla with and without removal of the keratin plug (Experiments 7-10); assay type: in vitro ADME
From the text: Keratin plug was removed from human and porcine mammary papilla using an alcoholic cotton swab. The swab was gently rubbed on the surface of the mammary papilla. The mammary papilla was observed under the microscope to confirm the removal of the plug from the surface and to confirm that epidermis of the mammary papilla was not damaged during this procedure.
The drug solutions were spiked with radioactive substances. […] Receptor medium was PBS with 7.4 pH.
(§1) Mammary papillae tissues were thawed. Keratin plugs were removed from the mammary papilla tissues using swabs with ethanol. […] The drug solutions were spiked with radioactive substances. […] Receptor medium was PBS with 7.4 pH.
as §1
Mammary papillae tissues were thawed. Keratin plugs were removed from the mammary papilla tissues using swabs with ethanol. […] The drug solutions were spike with radioactive substances. […] Receptor medium was PBS with 7.4 pH.

[3] = cited from earlier work
[4] = Permeation across human breast skin (Experiments 16-18); assay type: in vitro ADME
From the text: Mammary papillae and skin tissues were thawed. Keratin plugs were removed from the mammary papilla tissues using swabs with ethanol. […] The drug solutions were spiked with radioactive substances. […] Receptor medium was PBS with 7.4 pH. […] Results may be seen in FIG. 41 and Table 20.
Mammary papillae and skin tissues were thawed. Keratin plugs were removed from the mammary papilla tissues using swabs with ethanol. […] The drug solutions were spiked with radioactive substances. […] Receptor medium was PBS with 7.4 pH. […] Results may be seen in FIG. 42 and Table 22. […]

[5] = In vitro penetration and permeation via excised porcine mammary papilla, Franz diffusion cell (Example 1); assay type: in vitro ADME
Method: Drug penetration and permeation via mammary papillae was performed in a Franz diffusion cell using excised porcine mammary papilla. […] The transport studies were performed at time points for 6 and 48 hours.
In a separate study to evaluate the drug retention and disposition, the treatment was removed after 6 hours and the study was continued until the 48 hour mark. Samples were withdrawn from the receptor compartment at different time points. At the end of study, the mammary papilla was cut to 2 mm thick cylindrical sections from the top to the base of the tissue and was digested using a tissue solubilizer. The drug concentrations were determined by liquid scintillation counting.
Methods for the preparation of porcine mammary papilla. Freshly excised strips of porcine mammary papilla (6-7 months old animals) were washed with deionized water followed by removal of subcutaneous fatty tissue using a scalpel. Keeping the mammary papilla in the center, 3 cm×3 cm sized specimens of the tissue were excised, subcutaneous fat tissue was removed, and the tissue was frozen at −20° C. until used for the drug penetration and permeation studies.
Breast tissue was mounted between the two compartments of a vertical Franz diffusion cell (FDC) with breast tissue sandwiched between donor and receptor compartments. A mammary papilla was set in upright position inside the donor compartment of Franz diffusion cell. […] Samples were withdrawn from the receptor at different time points for 48 hours to determine drug concentration by radioactive count. At the end of 48 hours, tissue samples were taken for drug content determination. […]
In a second study, the mammary papillae in Franz diffusion cells were treated with the drugs for 48 hours and the permeation was followed through 48 hours. This analysis provided information regarding any saturation from drug treatment for extended periods of time. […]
Extraction of drugs from the mammary papilla. At the end of permeation study, the mammary papilla was removed from Franz diffusion cell and thoroughly washed with deionized water and blotted dried. Approximately 2 mm thick sections of the tissue were taken using a scalpel. These sections were homogenized, the drug was extracted, and the drug concentration was determined by radioactive counts.

[6] = Dye penetration study of mammary papilla, confocal and fluorescence microscopy; assay type: in vitro ADME, porcine; details: 12 hours treatment; 2 mm section from middle of papilla; confocal laser scanning microscopy
Method: For dye penetration studies, 10 mM of the dye sulforhodamine B (SRB) in 1:1 of ethanol:phosphate buffer and 0.32 mM of Nile Red (NR) in propylene glycol were applied on the mammary papillae for 12 hours. At the end of the study, the tissue was washed, cut into 2 mm thick sections as described earlier and placed on a glass slide for confocal microscopy study. Confocal images of mammary papilla were taken from approximately […] below the surface of the mammary papilla.
Mammary papillae were treated with each dye for 12 hours. Then, starting from tip, 2 mm thick sections of papillae were taken (FIG. 8). Section B was taken from middle of mammary papilla and studied with confocal laser scanning microscopy. From this 2 mm thick section, xy dimensional images were taken at different depths starting from 0 to 500 μm. Because xy views are taken at different depths (the dimension z), these are xyz images. The upper image is an xyz view after treatment with hydrophilic dye SRB. […] The xz views of the mammary papillae were also analyzed.
Fluorescence Microscopy. To verify the confocal data, cryo-sectioning of mammary papillae was performed after 12 hours treatment with the dyes. […] Sections from various different depths of the papilla and studied by fluorescence microscopy. […]

[7] = EST 15 mg/ml, human mammary papilla with keratin plug removal
[8] = EST 15 mg/ml, human mammary papilla without keratin plug removal
[9] = excised porcine mammary papilla, saturated solution in ethanol:water (50:50), 48 h, mean ± SEM, n=3
[10] = porcine mammary papilla, end of 48 h, mean ± SEM, n=3
[11] = dextran 10 mg/ml, human mammary papilla with keratin plug removal, *Values multiplied by 1000
[12] = dextran 10 mg/ml, human mammary papilla without keratin plug removal, *Values multiplied by 1000
[13] = porcine mammary papilla after keratin plug removal, 48 hours, n=4
[14] = porcine mammary papilla after keratin plug removal, end of 48 hours
[15] = porcine mammary papilla after keratin plug removal, end of 48 hours, n=4

## C[C@]12CC[C@@H]3c4ccc(O)cc4CC[C@H]3[C@@H]1CC[C@@H]2O [EST, estradiol]
[1]; EST 15 mg/ml in 50:50 ethanol:water, human mammary papilla with keratin plug removal
  lag time: 2.08 (0.28) hours
[1]; [7]
  cumulative amount permeated: 2.62 (0.97) μmole
  Drug retention in tissue: 6.25 (2.12) umole/g of tissue
  Flux: 0.09 (0.03) μmole/cm^2/hour
[1]; [8]
  cumulative amount permeated: 0.58 (0.06) μmole
  Drug retention in tissue: 1.06 (0.04) umole/g of tissue
  Flux: 0.01 (0.00) μmole/cm^2/hour
  lag time: 7.02 (0.94) hours
[1]; after keratin plug removal, 48 hours (Experiment 15)
  Permeation profile via human vs porcine mammary papillae: similar
[1]
  Increase in permeation across the tissues upon removal of the keratin plugs: more than 10 fold
[2]; porcine mammary papilla, donor in 50:50 ethanol:water, 48 hours
  Change of permeation upon removal of the keratin plugs (in words): increases significantly
[3]
  Log P: 3.6
[4]; EST 15 mg/ml in 50:50 ethanol:water, human breast skin, value (SEM)
  lag time: 0.56 (0.22) hours
[4]; EST 15 mg/ml, human breast skin, 48 hours, value (SEM)
  cumulative amount permeated: 2.10 (0.16) μmole
[4]; EST 15 mg/ml, human breast skin, end of 48 hours, value (SEM)
  Drug retention in tissue: 2.94 (0.30) umole/g of tissue
[4]; EST 15 mg/ml, human breast skin, value (SEM)
  Flux: 0.07 (0.01) μmole/cm^2/hour
[5]; excised porcine mammary papilla, Franz diffusion cell, saturated solution in ethanol:water (50:50), 48 h, mean ± SEM, n=3
  Lag time: 7.07 ± 0.29 h
[5]; [9]
  Cumulative % permeated: 1.03 ± 0.08%
  Flux × 10^3: 2.57 ± 0.15 μM · cm^2 · hr^−1
  Permeability coefficient × 10^3: 0.05 ± 0.002 cm^2 · hr^−1
  cumulative amount permeated: 0.23 ± 0.02 µM
[5]; [10]
  Cumulative % retained: 4.52 ± 0.59%
  Drug extraction from 2 mm thick mammary papilla sections, Section A (tip): 5.45 ± 0.49 µM/g
  Drug extraction from 2 mm thick mammary papilla sections, Section B: 3.63 ± 0.26 µM/g
  Drug extraction from 2 mm thick mammary papilla sections, Section C: 2.53 ± 0.31 µM/g
  Drug extraction from 2 mm thick mammary papilla sections, Section D (base): 1.55 ± 0.53 µM/g
[5]; porcine mammary papilla, treatment up to 48 hours
  Permeation across mammary papilla (in words): significant EST transport across the mammary papilla

## CCN(CC)c1ccc2nc3c4ccccc4c(=O)cc-3oc2c1 [NR, Nile Red]
[6]
  Distribution of dye fluorescence in mammary papilla: observed only in and around the ducts
[3]
  Log P: 3.8

## CCN(CC)c1ccc2c(-c3ccc(S(=O)(=O)O)cc3S(=O)(=O)[O-])c3ccc(=[N+](CC)CC)cc-3oc2c1 [SRB, sulforhodamine B]
[6]
  Distribution of dye fluorescence in mammary papilla: distribution of the dye in both the ducts and in the surrounding tissue
[3]
  Log P: −0.74

## dextran
[1]; dextran 10 mg/ml in 50:50 ethanol:water, human mammary papilla with keratin plug removal
  lag time: 9.63 (0.90) hours
[1]; [11]
  cumulative amount permeated: 119.42 (19.35)* μmole
  Drug retention in tissue: 789.33 (99.11)* umole/g of tissue
[1]; [12]
  cumulative amount permeated: 16.54 (7.32)* μmole
  Drug retention in tissue: 89.88 (19.26)* umole/g of tissue
[1]; dextran 10 mg/ml, human mammary papilla without keratin plug removal
  lag time: 14.74 (1.41) hours
[1]
  Increase in permeation across the tissues upon removal of the keratin plugs: more than 7 fold
[2]; porcine mammary papilla, 10 mg/ml in 50:50 ethanol:water, 48 hours
  Increase in permeation upon removal of the keratin plugs: approximately 2 folds
[4]; 48 hrs treatment
  Penetration via human breast skin (in words): no penetration of dextran even with 48 hrs treatment
[4]; dextran 10 mg/ml in 1:1 ethanol:water, human breast skin, value (SEM)
  lag time: 30.15 (3.04) hours

## inulin
[2]; porcine mammary papilla
  Transmammary flux: 0.33 μg/sq·cm/h
[2]; porcine mammary papilla after keratin plug removal, 10 mg/ml in 50:50 ethanol:water, n=4
  lag time: 16.7 h and 16.78 h
[2]; [13]
  Drug permeation (% of applied dose): 0.37 % of applied dose
  cumulative amt. permeated: 0.0037 µmol
[2]; [14]
  Amount permeated across the tissue: 18.37 µg
  Amount retaining into the tissue: 41.28 µg
[2]; [15]
  Drug retention in tissue (% of applied dose): 0.83 % of applied dose
  Skin retention: 0.023 umole/g of tissue
  Total drug retention in tissue: 0.0083 µmol
[2]; porcine mammary papilla after keratin plug removal, n=4
  Flux: 0.000066 μmole/sq.cm/hr
